Data on two compounds can be found in US20200261418A1, “HDAC INHIBITOR IN COMBINATION WITH IMMUNE CHECKPOINT MODULATOR FOR CANCER THERAPY” (4SC AG, priority 2017, published 2020).

Structures are written as SMILES. Read-outs that look alike come from different tables or passages of the source.

Data set [1] is described as follows: Handling of 4SC-202 tosylate calibration solutions (light stability). To be noted: solutions in dimethylsulfoxide and dimethylsulfoxide/acetonitrile. Type of data set: physicochemical. Here is the method:
For the preparation of calibration samples, 4SC-202 tosylate salt was dissolved in dimethylsulfoxide to a concentration of 1.00 mg/mL free base. For the preparation of QC samples, a second solution with a concentration of 1.00 mg/mL free base was used. Working solutions were prepared by serial dilutions in a mixture of dimethylsulfoxide/acetonitrile (50/50, v/v) to concentrations 50 times higher than the corresponding concentrations in matrix. The concentrations were calculated under consideration of purity and salt factor where applicable. All concentrations are expressed as those of the free base. […] The concentrations of the calibration are (ng/mL): 1.00, 2.00, 5.00, 20.00, 100, 500, 750, 1000. The concentrations of the QC are (ng/mL): 13.00, 20.00, 750 For preparation of the CAL and QC, the matrix was fortified with the working solutions using a ratio of 98/2 (v/v). For the preparation of the internal standard solution, 4SC-201-d6 mesylate salt was dissolved in dimethylsulfoxide to a concentration of 1.00 mg/mL of the free base. Further dilutions to a final concentration of 100 ng/mL were done in acetonitrile. The concentration was calculated under consideration of purity and salt factor.

A further data set concerns C38 tumor fragments. Put plainly: Preclinical murine in vivo tumor model, C38. Set-up: species or system female C57Bl/6 mice. To be noted: C38 model (FIG. 1); anti-PD1 10 mg/kg IP; 4SC-202 at 20 mg/kg PO alone or combined. Here is the method:
(§1) In vivo murine tumor models were conducted with a combination of 4SC-202 and murine anti-PD-1 and anti-PD-L1 antibodies, respectively. 1×10^6 CT26 cells or 30-50 mg C38 tumor fragments (both […] colon carcinoma cell lines) were subcutaneous implantation into the right flank of female C57Bl/6 (C38 tumor fragments) or Balb/c (CT26 cells) mice, respectively, at day 0 of the experiment.
Protocol C38: At D10, when tumors reached a mean volume of 142±27 mm^3, 160 mice out of 224, were randomized according to their individual tumor volume into 8 groups of 20 mice each. […]
(§2) Monitoring of mice body weights and tumor volume twice a week. […] Tumor width and length were measured using a digital caliper twice a week and estimated tumor volumes were calculated from measured tumor length and width using the formula Estimated tumor volume=width^2×length/2. […]

The test system of another data set is CT26 cells. Put plainly: Preclinical murine in vivo tumor model, CT26. Set-up: species or system female Balb/c mice. Particulars: CT26 model (FIG. 2); anti-PD-L1 10 mg/kg IP; 4SC-202 at 20 mg/kg PO alone or combined. The procedure: as §1
Protocol CT26: At D7, when tumors reached a mean volume of 73±21 mm^3, 80 mice out of 104, were randomized according to their individual tumor volume into 4 groups of 20 mice each. […]
as §2

Data set [2] in a line: Food effect dog study, plasma pharmacokinetics. It counts as in vivo, dogs (male Beagle). Particulars: approx. 60 mg/kg oral tablets; for AUC: male, Beagle, dog, plasma, po, 60 mg/kg, three dogs, read-out: AUC geometric mean. The procedure: A pharmacokinetic profile for 4SC-202 was determined in an animal study comprising three dogs (male Beagle). To allow for better comparison of the fasted/fed values and eliminate inter-subject variability, each dog first received a first dose of 4SC-202 in the fasted state, and after a wash-out phase of one week, received another dose of 4SC-202 in the fed state. After each respective dose, the plasma pK of 4SC-202 was determined
Before the first dosing, the dogs were fasted overnight and food was returned after the 4 h post-dose blood sampling collections. On each dosing day, the dogs received a single intramuscular injection of freshly prepared Pentagastrin (6 μg/kg and 0.05 mL/kg) 30-33 min prior to oral treatment with approx. 60 mg/kg 4SC-202 (tablet as detailed herein below); for fed animals, these steps were omitted and the dogs received their usual meal approx. 30 min prior to dosing. The number of tablets (4SC-202 tosylate corresponding to 100 mg 4SC-202 free base per tablet) was rounded to the nearest whole tablet based on dose and animal pre-dose body weight. Immediately after dosing the animals received 20 mL of water after oral gavage or were offered 20 mL of water to assist swallowing of the tablets.
Blood samples (1 ml per sample in K2EDTA as anticoagulant) were collected by venipuncture of a peripheral vein and placed on wet ice immediately after collection until centrifugation as 2000*g for 10 min at 2-8° C. to isolate plasma. […]
The concentration of 4SC-202 (free base) in plasma samples was determined by first precipitating the samples with three volume equivalents of acetonitrile containing the internal standard. […]
For the preparation of calibration samples, 4SC-202 tosylate salt was dissolved in dimethylsulfoxide to a concentration of 1.00 mg/mL free base. […] The concentrations were calculated under consideration of purity and salt factor where applicable. All concentrations are expressed as those of the free base. […] The concentration was calculated under consideration of purity and salt factor. […]

Data set [3] has as its system heavily pre-treated patients with different types of blood cancer. Particulars: cited from earlier work.

With `Cc1ccc(S(=O)(=O)O)cc1.Cn1cc(-c2ccc(S(=O)(=O)n3ccc(/C=C/C(=O)Nc4ccccc4N)c3)cc2)cn1` [4SC-202 tosylate salt], in data set [1], the “light stability of solutions” value was “light instability”.

Take `Cn1cc(-c2ccc(S(=O)(=O)n3ccc(/C=C/C(=O)Nc4ccccc4N)c3)cc2)cn1` [Compound 4SC-202, (E)-N-(2-aminophenyl)-3-(1-((4-(1-methyl-1H-pyrazol-4-yl)phenyl)sulfonyl)-1H-pyrrol-3-yl)acrylamide]: the “anti-tumor activity compared to mice treated with vehicle” value in the data set with C38 tumor fragments and in the data set with CT26 cells was “increase of the antitumor activity” throughout. The “AUC increase of the fed state over the fasted state” value in data set [2] (dogs) was “about 3.5 fold”. In addition, the AUC in data set [2] (fasted) is 3980 ng·h/mL; in data set [2] (fed), 13900 ng·h/mL. Besides, the “tolerability (adverse events)” value in data set [3] (24 heavily pre-treated patients, few and/or manageable adverse events) was “well tolerated”. Also, the “disease control, share of patients” value in data set [3] (24 patients) is 83%. In addition, the “long-term stabilization, share of patients” value in data set [3] (24 patients) is listed as 50%. Also, the “complete remission, duration” value in data set [3] (one complete remission among 24 patients) is 28 months. Moreover, in data set [3] (one partial responder among 24 patients), the “partial responder, duration” value is given as 8 months.
